Patent EP1137386B1, “USE OF TRICLOSAN AS AN AN[…]” (Jawaharlal Nehru Centre For Advanced Scientific Research, priority 1999, dated 2001)

How the values were obtained:
Plasmodium falciparum = experiment: In vitro effect on growth of Plasmodium falciparum (parasitemia and morphology in Giemsa stained smears); assay type: cell-based; settings: P. falciparum cultures in human erythrocytes
Experimental: Plasmodium falciparum cultures with 5-6% parasitemia are diluted with washed 50% suspension of red blood cells and CRPMI so that the initial parasitemia becomes 1% and hematocrit 2%. 1.5 millilitres of this diluted infected cell suspension is placed in flat bottom vials, which are kept in a desiccator equipped with a stopcock. A candle is lit and the cover of the desiccator is put on with the stopcock open. When the candle goes out, the stopcock is closed. This is a simple but effective way to produce an atmosphere of low O2(1-5%) and high CO2 content (7%). Fresh medium is provided daily by withdrawing the supernatant and supplementing cells with 1.25 millilitres of CRPMI. Fresh erythrocytes are added every third or fourth day when the parasitemia reaches 6-8%, bringing it down to 1%. In cultures, all stages of the asexual cycle are seen at any one time, since the cultures have lost some of the synchronicity characteristic of P. falciparum in man. Delicate rings with two chromatin dots are common. Schizonts or segmenters show 15-18 merozoites, the same numbers seen in material from human infections.
This is done by observing the stained smear of infected red blood cells under the microscope in oil immersion. The following stages of Plasmodium falciparum with their characteristic features can be seen. These stages are as follows: • 1. […]

P. falciparum = experiment: Uptake of [35S] methionine as an index of inhibition of parasite growth; assay type: cell-based; settings: P. falciparum in culture, different concentrations of triclosan (Fig. 5)
Experimental: Uptake of [^35S] methionine, NEN, DuPont, (specific activity 1175 Ci/mmol) is used as an index of parasite growth. The final isotope concentration to be added in each well is 100 µCi/ml culture. Before an hour of total incubation period (24, 48, or 72 h) 20 µl of the isotope in culture medium is added to each well and incubated for an additional 1 hr. After incubation, contents of the well are pipetted into microcentrifuge tubes kept on ice. The samples are spun at 3000 g for 10 sec. The supernatant is discarded and the pellet washed twice in 1.0 ml of 0.9% NaCl. The pellet is lysed with 50 µl distilled water and spotted onto Whatman No. 3 discs (presoaked in 10% TCA with cold methionine and dried). After spotting, these discs are allowed to dry and then they are treated with hot TCA, cold TCA (10% throughout), alcohol ether (2:1, v/v) and finally with ether. […] The discs are air dried after ether treatment, and counted in optiphase 'Hisafe' scintillation fluid (Wallac Scintillation Products, U.K.) in a Wallac β-counter (Model 1409, Finland).
The drug and parasites were aliquoted in required number of rows of wells in 96 well titre plates as described in example 1. […] After ether treatment, the discs were air dried, placed in scintillation fluid phase III from Wallac and counted in Wallac β-counter.

[1] = system: cell free system for the synthesis of fatty acids of Plasmodium falciparum; experiment: Incorporation of [14C] malonyl-CoA in fatty acids in cell free system, scintillation counting and TLC/autoradiography; assay type: biochemical
Experimental: For cell free fatty acid synthesis in E.Coli, See Δ P.W. Majerus et al. (1968), Methods in Enzymol, 14, 43-52.
The pellet was washed four to five times with cold phosphate buffer saline and after washing, the pellet was suspended in 3.0 ml of phosphate buffer saline and equal volume of 0.15% saponin was added to isolate free parasites. (See specific embodiments). The late ring stage (trophozoites) of the parasites thus isolated were washed once thoroughly with PBS and the cells suspended in 0.4 ml of 1 mM potassium phosphate buffer pH 7.0 and sonicated for 15 sec. The cell lysate (2.0 mg cell extract protein) thus prepared was mixed with 200 µl of 200 mM of potassium phosphate buffer pH 7.0 containing 70 uM acetyl CoA, 8 mM glucose-6-phosphate, 3 mM each of NADH and NADPH, 0.4 mM EDTA, 4 units of glucose-6-phosphate dehydrogenase, 45 uM [^14C]malonyl-CoA (specific activity 54.2 mCi/mmol, DuPont) and 3 mM dithiothreitol (DTT). To this 200 µg of DTT reduced acyl carrier protein (ACP) from E. coli (Sigma) in 25 µl of 75 mM phosphate buffer was added. The reaction mixture was incubated for 30 min at 37°C. […] A part (25 µl) of the sample in methanol was counted by scintillation counting to determine also the extent of incorporation of [^14C] malonyl-CoA in fatty acids both in the presence and absence of Triclosan.

Plasmodium berghei = experiment: Protection of mice against malaria after administration in vivo (P. berghei infected mice); design: species or system Swiss mice; settings: for mice survived till day 14 / mice survived till 14th day: subcutaneously in DMSO, day 1 of infection and next 6 days, P. berghei infected male swiss mice
From the text: The present invention involves the use of triclosan for the manufacture of an antimalarial agent to inhibit the growth of the murine malaria parasite Plasmodium berghei as well. The effect of various concentration of triclosan in controlling parasitemia is monitored in Plasmodium berghei infected mice. • 1. Plasmodium berghei infection: P. berghei parasite is maintained in Swiss male mice through serial blood passage. • 2. Triclosan treatment: Swiss mice (5 animals/group) are infected on day zero with about 10^6 infected red blood cells (IRBC). The animals are kept under observation to record parasitemia and mortality. Parasitemia is determined by counting 10^3 red cells in a thin blood smear stained with Giesma and expressed as number of parasitized cells/100 erythrocytes. The animals given only dimethylsulfoxide (DMSO) are used as controls and referred to as untreated animals. Level of parasitemia is >1% on the first day of triclosan treatment. Parasitemia is monitored every 24 hrs, for 7-8 days.
Male swiss mice were infected with P. berghei. The animals were kept under observation and parasitemia was recorded daily. Triclosan (0.8, 1.6, 3.0, 8.0, 14.0 and 28.0 mg/kg body weight of mice respectively) in DMSO was given subcutaneously on day 1 of infection when parasitemia was>1% and subsequently for the next 6 days. Experiments with triclosan were conducted with a group of five animals, each for the dosages mentioned above. DMSO was given to control animals (6) and were referred to as untreated animals. Parasitemia and mortality were recorded till the untreated mice died. Typically all the six mice in the control group died by day 9 of infection while 3, 3 and 4 mice out of 5 treated with 0.8, 1.6 and 3.0 mg triclosan/kg (body weight), survived till day 14. All the mice (5 out of 5) survived till 14th day when treated with 8.0, 14.0 and 28.0 mg triclosan/kg (body weight).

Oc1cc(Cl)ccc1Oc1ccc(Cl)cc1Cl [triclosan, 2,4,4'-trichloro-2'-hydroxydiphenyl ether] was tested, and the “growth of the human malaria parasite in vitro” value (Plasmodium falciparum) was “inhibits the growth of the human malaria parasite in vitro in a very potent manner”, the “inhibition of protein synthesis, uptake of (^35S) methionine” value (P. falciparum) was “reduced uptake of (^35S) methionine” and the “incorporation of [^14C] malonyl CoA in fatty acids” value ([1]; cell free system, 0.15, 0.225, 0.3, 0.6 and 1.2 µg of triclosan, 30 min at 37°C) was “inhibits incorporation of [^14C] malonyl CoA in fatty acids”. The “longer chain fatty acids synthesized (elongation reaction)” value ([1]; cell free system, TLC with autoradiography) was “progressive decline in the longer chain fatty acids”, the “mice survived till day 14” value (Plasmodium berghei; 0.8 mg/kg body weight) was 3 mice out of 5 and the “mice survived till day 14” value (Plasmodium berghei; 1.6 mg/kg body weight) was 3 mice out of 5. The “mice survived till day 14” value (Plasmodium berghei; 3.0 mg/kg body weight) was 4 mice out of 5, the “mice survived till 14th day” value (Plasmodium berghei; 8.0 mg/kg body weight) was 5 out of 5 and the “mice survived till 14th day” value (Plasmodium berghei; 14.0 mg/kg body weight) was 5 out of 5. For the same molecule, the “mice survived till 14th day” value (Plasmodium berghei; 28.0 mg/kg body weight) was 5 out of 5, the mortality (Plasmodium berghei; P. berghei infected Swiss mice, untreated animals die by 8 days after the infection) was “delayed mortality is observed in treated animals depending on dose” and the parasitemia (Plasmodium berghei; injection in mice infected with P. berghei) was “able to curtail the parasitemia”.
